Reference: PubChem BioAssay (NCI)
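Interpolation was linear, between the two tested concentrations surrounding the appropriate level; five concentrations were tested over 48 hours in 96-well plates. GI50 is the concentration that inhibits growth by half. The concentration for full growth arrest is given as TGI.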

Key:
Assay in all cases: inhibition of tumour cell growth, NCI panel, 48 h
OVCAR-8 ovarian = test system: OVCAR-8 ovarian
HL-60(TB) leukemia = test system: HL-60(TB) leukemia
HCT-116 colon = test system: HCT-116 colon
HOP-92 NSCLC = test system: HOP-92 NSCLC
UO-31 renal = test system: UO-31 renal
M14 melanoma = test system: M14 melanoma
A549 NSCLC = test system: A549 NSCLC
U251 CNS = test system: U251 CNS
K-562 leukemia = test system: K-562 leukemia
NCI-H226 lung = test system: NCI-H226 lung

Structure (SMILES) | TGI (OVCAR-8 ovarian) [µM] | TGI (HL-60(TB) leukemia) [µM] | TGI (HCT-116 colon) [µM] | TGI (HOP-92 NSCLC) [µM] | TGI (UO-31 renal) [µM] | TGI (M14 melanoma) [µM] | TGI (A549 NSCLC) [µM] | TGI (U251 CNS) [µM] | TGI (K-562 leukemia) [µM] | TGI (NCI-H226 lung) [µM] | GI50 (OVCAR-8 ovarian) [µM] | GI50 (HL-60(TB) leukemia) [µM] | GI50 (HCT-116 colon) [µM] | GI50 (HOP-92 NSCLC) [µM] | GI50 (UO-31 renal) [µM] | GI50 (A549 NSCLC) [µM] | GI50 (U251 CNS) [µM] | GI50 (K-562 leukemia) [µM] | GI50 (NCI-H226 lung) [µM] | GI50 (M14 melanoma) [µM]
CCO/C=C1\SC(=S)N(c2ccc(OCC)cc2)C1=O | > 100 | > 100 | > 100 | > 100 | > 100 | > 100 | > 100 | > 100 | > 100 | > 100 |  |  |  |  |  |  |  |  |  | 
COc1cc(C(=O)/C=C/c2cccc(Nc3ccnc4cc(Cl)ccc34)c2)cc(OC)c1OC | 2.12 | 4.52 | 1.29 | 5.84 | 1.95 |  | 3.91 | 2.24 | 3.23 | 2.95 | 0.524 | 1.82 | 0.347 | 1.47 | 0.566 | 1.48 | 0.911 | 0.403 | 1.27 | 
Cc1ccccc1C(CCCO)C(=O)O (stereo not given) | > 100 | > 100 | > 100 | > 100 | > 100 | > 100 | > 100 | > 100 | > 100 |  |  |  |  |  |  |  |  |  |  | 
O=C(NCCc1ccccc1)C1C(=O)C(=O)N(CCc2ccccc2)C1=O (stereo not given) |  | > 100 | > 100 | > 100 | > 100 | > 100 | > 100 | > 100 | > 100 | > 100 |  |  |  |  |  |  |  |  |  | 
N#Cc1ccc(Sc2nc3ccccc3[nH]2)cc1 | > 100 | > 100 |  | > 100 | > 100 |  | > 100 | > 100 | > 100 | > 100 |  |  |  |  |  |  |  |  |  | 
S=C1SCN(Cc2ccccc2)CN1Cc1ccco1 | 32 | > 100 | 12.3 | 10.9 | 18.7 | 19.3 | > 100 | 68.3 | > 100 |  | 5.71 | 5.91 | 1.47 | 2.4 | 4.56 | 23.3 | 21.3 | 3.62 |  | 4.04
COc1cc(-c2nccc3[nH]c(-c4ccc5cc[nH]c5c4)nc23)cc(OC)c1OC | 11.1 | < 0.01 | 1.13 | 4.98 | 2.93 |  | 1.77 | 1.85 | 2.28 |  | < 0.01 | < 0.01 | < 0.01 | 0.306 | < 0.01 | 0.0113 | < 0.01 | < 0.01 |  | 
CC(=O)OCC(=O)[C@@]1(O)CC[C@H]2[C@@H]3C[C@H](C)C4=CC(=O)C=C[C@]4(C)[C@@]3(F)[C@@H](O)C[C@@]21C |  | > 100 | > 100 | > 100 | > 100 | > 100 | > 100 | > 100 | > 100 | > 100 |  |  |  |  |  |  |  |  |  | 
COc1cc(OC)c(OC)cc1/C=C/c1nc2ccccc2s1 | > 100 | > 100 | > 100 | 56.9 | > 100 | > 100 | > 100 | > 100 |  | > 100 |  |  |  |  |  |  |  |  |  | 
O=C1NC(=O)C2C(=O)NC(=O)C1C2Cc1ccco1 (stereo not given) | > 100 | > 100 |  | > 100 | > 100 | > 100 | > 100 |  | > 100 | > 100 |  |  |  |  |  |  |  |  |  | 
CCOC(=O)C1(C)CCC(C(C(=O)O)C(=O)O)CC1=O (stereo not given) | > 100 | > 100 | > 100 | > 100 | > 100 | > 100 | > 100 | > 100 |  | > 100 |  |  |  |  |  |  |  |  |  | 
CCc1ccc(Nc2cc(C)c3ccc(O)cc3n2)cc1 | 35.3 | 12.5 | 17.4 | 10.8 | 23 | 18.1 |  | 22.5 | 15.4 | 54.3 | 10.8 | 3.32 | 4.57 | 2.81 | 4.54 |  | 6.84 | 3.2 | 19.8 | 5.42
Cc1cc(Cl)nc(N(CCNc2ccnc3cc(Cl)ccc23)Cc2ccco2)n1 | 4.29 | 3.59 | 3.2 | 3.55 | 2.93 | 3.63 | 13.1 | 3.09 | 3.35 |  | 1.93 | 1.65 | 1.58 | 1.2 | 1.42 | 3.1 | 1.64 | 1.54 |  | 1.88
COC(=O)C1=C(C(=O)OC)C2(c3ccccc3)OC1(c1ccccc1)c1cc3ccccc3cc12 | 2.96 | 1.84 |  | 2.44 | 2.77 | 3.33 | 5.32 | 18.8 | 6.06 |  |  |  |  |  |  |  |  |  |  | 
CNCc1ccc(-c2cc(-c3nc(-c4ccc(S(=O)(=O)C(C)C)cc4)cnc3N)on2)cc1 | 5.94 | 10.6 | 2.3 | 30.6 | 14 | 2.6 |  | 21.5 | 3.61 | 44.1 | 2.31 | 1.35 | 1.08 | 13.3 | 1.35 |  | 4.93 | 1.05 | 18.8 | 1.18
